From PMC8064871 (International Journal of Biological Macromolecules, 2021)
Counter-ions that a name gives are not always drawn.

Key:
SARS-CoV-2 3CL^pro [1] = molecular target: T1, SARS-CoV-2 3CL^pro (Severe acute respiratory syndrome coronavirus 2, UniProt P0DTD1); conditions: incubation 5-40 min at 37 °C; kobs = (k inact·[I])/(K I + [I])
SARS-CoV-2 3CL^pro [2] = molecular target: T1, SARS-CoV-2 3CL^pro; assay: Intact protein molecular weight analysis by mass spectrometry; type: binding; conditions: 8.4 μM protease, 90 μM compound, 30 min at 37 °C
SARS-CoV-2 3CL^pro [3] = molecular target: T1, SARS-CoV-2 3CL^pro; assay: Enzymatic inhibition assay of SARS-CoV-2 3CLpro by FRET; type: biochemical; conditions: for inhibitory activity against SARS-CoV-2 3CL^pro (in words): concentrations 0, 1, 10, 100 μM
SARS-CoV-2 3CL^pro [4] = molecular target: T1, SARS-CoV-2 3CL^pro; assay: biochemical; conditions: IC50 against SARS-CoV-2 3CL^pro, incubation 3 min

SMILES	IC50 (SARS-CoV-2 3CL^pro [3])	inhibitory activity against SARS-CoV-2 3CL^pro (in words) (SARS-CoV-2 3CL^pro [3])	further results
CC1=CC(=O)c2ccccc2C1=O [Entry 1, 2-Methyl-1,4-naphthoquinone (vitamin K3), reference compound]	–	–	K I (inhibition constant) (SARS-CoV-2 3CL^pro [1]): 112.2 µM; proteins bound with one compound (SARS-CoV-2 3CL^pro [2]): 55%; proteins bound with two compounds (SARS-CoV-2 3CL^pro [2]): about 15%; proteins covalently bound (total) (SARS-CoV-2 3CL^pro [2]): about 70%
O=C1C=CC(=O)c2ccccc21 [Entry 2, 1,4-Naphthoquinone]	0.69 ± 0.13 µM	–	–
O=C1C=C(Cl)C(=O)c2ccccc21 [Entry 3, 2-Chloro-1,4-naphthoquinone]	1.92 ± 0.49 µM	–	–
O=C1C=C(O)C(=O)c2ccccc21 [Entry 4, 2-Hydroxy-1,4-naphthoquinone]	> 100 µM	almost lose their inhibitory activities	–
NC1=C(Cl)C(=O)c2ccccc2C1=O [Entry 5, 2-Amino-3-chloro-1,4-naphthoquinone]	> 100 µM	almost lose their inhibitory activities	–
O=C1C=CC(=O)c2c(O)cccc21 [Entry 6, 5-Hydroxy-1,4-naphthoquinone]	4.11 ± 0.24 µM	–	–
O=C1C=CC(=O)c2c(O)ccc(O)c21 [Entry 7, 5,8-Dihydroxy-1,4-naphthoquinone]	0.49 ± 0.11 µM	–	times higher inhibitory activity than Vitamin K3 (SARS-CoV-2 3CL^pro [3]; ratio of IC50 values against SARS-CoV-2 3CL^pro): 9.8 times; K I (inhibition constant) (SARS-CoV-2 3CL^pro [1]): 3.05 µM; IC50 (SARS-CoV-2 3CL^pro [4]): 0.79 µM; proteins bound with one compound (SARS-CoV-2 3CL^pro [2]): 80%; proteins bound with two compounds (SARS-CoV-2 3CL^pro [2]): about 10%; proteins covalently bound (total) (SARS-CoV-2 3CL^pro [2]): about 90%
CC1=CC(=O)c2c(O)cccc2C1=O [Entry 8, 2-Methyl-5-hydroxy-1,4-naphthoquinone]	1.32 ± 0.33 µM	–	–
O=NN(CCCl)C(=O)NC1CCCCC1 [Lomustine, reference compound]	5.86 µM	–	–
N=C(N)c1ccc2cc(OC(=O)c3ccc(N=C(N)N)cc3)ccc2c1 [Nafamostat Mesylate, reference compound]	–	–	remaining activity at 100 µM (SARS-CoV-2 3CL^pro [3]; read-out: residual activity of the protease): ~60%
CC1=C(C/C=C(\C)CCC[C@H](C)CCC[C@H](C)CCCC(C)C)C(=O)c2ccccc2C1=O [Vitamin K1, reference compound]	–	no inhibition at the high and middle concentration	–
CC(=O)Oc1cc(C)c(OC(C)=O)c2ccccc12 [Vitamin K4, reference compound]	–	lost its inhibitory activity	–
COc1cc(C(=O)NS(=O)(=O)c2ccccc2C)ccc1Cc1cn(C)c2ccc(NC(=O)OC3CCCC3)cc12 [Zafirlukast, reference compound]	46.7 µM	–	–
